# Source: the CheMixHub viscosity set
# ± gives the uncertainty stated by the source.
# Test: xn = mol fraction of the nth substance listed
smiles,measurement,setting,value
OCCCl + CCCCOC(C)=O,viscosity,"298.15 K, 101.33 kPa, x1 = 0.1068",0.718 ± 0.005 mPa·s
same,viscosity,"298.15 K, 101.33 kPa, x1 = 0.2078",0.784 ± 0.006 mPa·s
same,viscosity,"298.15 K, 101.33 kPa, x1 = 0.3045",0.865 ± 0.006 mPa·s
same,viscosity,"298.15 K, 101.33 kPa, x1 = 0.4056",0.97 ± 0.007 mPa·s
same,viscosity,"298.15 K, 101.33 kPa, x1 = 0.5002",1.105 ± 0.008 mPa·s
same,viscosity,"298.15 K, 101.33 kPa, x1 = 0.5993",1.286 ± 0.009 mPa·s
same,viscosity,"298.15 K, 101.33 kPa, x1 = 0.7",1.549 ± 0.011 mPa·s
same,viscosity,"298.15 K, 101.33 kPa, x1 = 0.8008",1.919 ± 0.014 mPa·s
same,viscosity,"298.15 K, 101.33 kPa, x1 = 0.8994",2.359 ± 0.017 mPa·s
same,viscosity,"303.15 K, 101.33 kPa, x1 = 0.1068",0.669 ± 0.005 mPa·s
same,viscosity,"303.15 K, 101.33 kPa, x1 = 0.2078",0.732 ± 0.005 mPa·s
same,viscosity,"303.15 K, 101.33 kPa, x1 = 0.3045",0.801 ± 0.006 mPa·s
same,viscosity,"303.15 K, 101.33 kPa, x1 = 0.4056",0.894 ± 0.006 mPa·s
same,viscosity,"303.15 K, 101.33 kPa, x1 = 0.5002",1.013 ± 0.007 mPa·s
same,viscosity,"303.15 K, 101.33 kPa, x1 = 0.5993",1.169 ± 0.008 mPa·s
same,viscosity,"303.15 K, 101.33 kPa, x1 = 0.7",1.391 ± 0.01 mPa·s
same,viscosity,"303.15 K, 101.33 kPa, x1 = 0.8008",1.704 ± 0.012 mPa·s
same,viscosity,"303.15 K, 101.33 kPa, x1 = 0.8994",2.106 ± 0.015 mPa·s
same,viscosity,"308.15 K, 101.33 kPa, x1 = 0.1068",0.627 ± 0.005 mPa·s
same,viscosity,"308.15 K, 101.33 kPa, x1 = 0.2078",0.684 ± 0.005 mPa·s
same,viscosity,"308.15 K, 101.33 kPa, x1 = 0.3045",0.746 ± 0.005 mPa·s
same,viscosity,"308.15 K, 101.33 kPa, x1 = 0.4056",0.828 ± 0.006 mPa·s
same,viscosity,"308.15 K, 101.33 kPa, x1 = 0.5002",0.932 ± 0.007 mPa·s
same,viscosity,"308.15 K, 101.33 kPa, x1 = 0.5993",1.07 ± 0.007 mPa·s
same,viscosity,"308.15 K, 101.33 kPa, x1 = 0.7",1.262 ± 0.009 mPa·s
same,viscosity,"308.15 K, 101.33 kPa, x1 = 0.8008",1.518 ± 0.011 mPa·s
same,viscosity,"308.15 K, 101.33 kPa, x1 = 0.8994",1.849 ± 0.014 mPa·s
CCCCCCCCCCC + CCCCOCCCC,viscosity,"298.15 K, 101 kPa, x2 = 0.1096",1.004 ± 0.013 mPa·s
same,viscosity,"298.15 K, 101 kPa, x2 = 0.2089",0.9429 ± 0.012 mPa·s
same,viscosity,"298.15 K, 101 kPa, x2 = 0.3153",0.889 ± 0.011 mPa·s
same,viscosity,"298.15 K, 101 kPa, x2 = 0.4013",0.8479 ± 0.011 mPa·s
same,viscosity,"298.15 K, 101 kPa, x2 = 0.5046",0.8073 ± 0.01 mPa·s
same,viscosity,"298.15 K, 101 kPa, x2 = 0.6034",0.7715 ± 0.0097 mPa·s
same,viscosity,"298.15 K, 101 kPa, x2 = 0.7073",0.7333 ± 0.0093 mPa·s
same,viscosity,"298.15 K, 101 kPa, x2 = 0.8109",0.7 ± 0.0089 mPa·s
same,viscosity,"298.15 K, 101 kPa, x2 = 0.9181",0.6643 ± 0.0084 mPa·s
same,viscosity,"308.15 K, 101 kPa, x2 = 0.1096",0.8817 ± 0.011 mPa·s
same,viscosity,"308.15 K, 101 kPa, x2 = 0.2089",0.8306 ± 0.01 mPa·s
same,viscosity,"308.15 K, 101 kPa, x2 = 0.3153",0.7845 ± 0.0099 mPa·s
same,viscosity,"308.15 K, 101 kPa, x2 = 0.4013",0.7501 ± 0.0095 mPa·s
same,viscosity,"308.15 K, 101 kPa, x2 = 0.5046",0.7159 ± 0.0091 mPa·s
same,viscosity,"308.15 K, 101 kPa, x2 = 0.6034",0.6891 ± 0.0087 mPa·s
same,viscosity,"308.15 K, 101 kPa, x2 = 0.7073",0.6599 ± 0.0084 mPa·s
same,viscosity,"308.15 K, 101 kPa, x2 = 0.8109",0.6356 ± 0.0081 mPa·s
same,viscosity,"308.15 K, 101 kPa, x2 = 0.9181",0.6114 ± 0.0078 mPa·s
same,viscosity,"318.15 K, 101 kPa, x2 = 0.1096",0.7547 ± 0.0095 mPa·s
same,viscosity,"318.15 K, 101 kPa, x2 = 0.2089",0.7179 ± 0.0091 mPa·s
same,viscosity,"318.15 K, 101 kPa, x2 = 0.3153",0.6814 ± 0.0086 mPa·s
same,viscosity,"318.15 K, 101 kPa, x2 = 0.4013",0.6523 ± 0.0083 mPa·s
same,viscosity,"318.15 K, 101 kPa, x2 = 0.5046",0.624 ± 0.0079 mPa·s
same,viscosity,"318.15 K, 101 kPa, x2 = 0.6034",0.5989 ± 0.0076 mPa·s
same,viscosity,"318.15 K, 101 kPa, x2 = 0.7073",0.5761 ± 0.0074 mPa·s
same,viscosity,"318.15 K, 101 kPa, x2 = 0.8109",0.5579 ± 0.0071 mPa·s
same,viscosity,"318.15 K, 101 kPa, x2 = 0.9181",0.5355 ± 0.0069 mPa·s
NC=O + CCCCn1cc[n+](C)c1.F[B-](F)(F)F,viscosity,"293.15 K, 101 kPa, x2 = 0.7588",71.35 ± 2.4 mPa·s
same,viscosity,"303.15 K, 101 kPa, x2 = 0.5095",21.65 ± 0.68 mPa·s
CCOC(=O)CCC(=O)OCC + CCCO,viscosity,"293.15 K, 100 kPa, x1 = 0.3998",1.875 ± 0.017 mPa·s
same,viscosity,"313.15 K, 100 kPa, x1 = 0.4999",1.325 ± 0.013 mPa·s
same,viscosity,"318.15 K, 100 kPa, x1 = 0.8997",1.545 ± 0.015 mPa·s
same,viscosity,"323.15 K, 100 kPa, x1 = 0.3998",1.065 ± 0.011 mPa·s
OCCCl + CCCO,viscosity,"298.15 K, 101.33 kPa, x1 = 0.099",1.761 ± 0.041 mPa·s
same,viscosity,"298.15 K, 101.33 kPa, x1 = 0.1945",1.802 ± 0.042 mPa·s
same,viscosity,"298.15 K, 101.33 kPa, x1 = 0.2948",1.842 ± 0.043 mPa·s
same,viscosity,"298.15 K, 101.33 kPa, x1 = 0.3912",1.92 ± 0.045 mPa·s
same,viscosity,"298.15 K, 101.33 kPa, x1 = 0.4924",2.028 ± 0.047 mPa·s
same,viscosity,"298.15 K, 101.33 kPa, x1 = 0.5924",2.148 ± 0.049 mPa·s
same,viscosity,"298.15 K, 101.33 kPa, x1 = 0.693",2.281 ± 0.052 mPa·s
same,viscosity,"298.15 K, 101.33 kPa, x1 = 0.8071",2.428 ± 0.055 mPa·s
same,viscosity,"298.15 K, 101.33 kPa, x1 = 0.8959",2.6 ± 0.059 mPa·s
same,viscosity,"303.15 K, 101.33 kPa, x1 = 0.099",1.58 ± 0.037 mPa·s
same,viscosity,"303.15 K, 101.33 kPa, x1 = 0.1945",1.62 ± 0.038 mPa·s
same,viscosity,"303.15 K, 101.33 kPa, x1 = 0.2948",1.67 ± 0.039 mPa·s
same,viscosity,"303.15 K, 101.33 kPa, x1 = 0.3912",1.735 ± 0.041 mPa·s
same,viscosity,"303.15 K, 101.33 kPa, x1 = 0.4924",1.813 ± 0.042 mPa·s
same,viscosity,"303.15 K, 101.33 kPa, x1 = 0.5924",1.891 ± 0.044 mPa·s
same,viscosity,"303.15 K, 101.33 kPa, x1 = 0.693",2.02 ± 0.047 mPa·s
same,viscosity,"303.15 K, 101.33 kPa, x1 = 0.8071",2.16 ± 0.05 mPa·s
same,viscosity,"303.15 K, 101.33 kPa, x1 = 0.8959",2.3 ± 0.053 mPa·s
same,viscosity,"308.15 K, 101.33 kPa, x1 = 0.099",1.4 ± 0.033 mPa·s
same,viscosity,"308.15 K, 101.33 kPa, x1 = 0.1945",1.44 ± 0.034 mPa·s
same,viscosity,"308.15 K, 101.33 kPa, x1 = 0.2948",1.48 ± 0.035 mPa·s
same,viscosity,"308.15 K, 101.33 kPa, x1 = 0.3912",1.542 ± 0.036 mPa·s
same,viscosity,"308.15 K, 101.33 kPa, x1 = 0.4924",1.606 ± 0.038 mPa·s
same,viscosity,"308.15 K, 101.33 kPa, x1 = 0.5924",1.678 ± 0.039 mPa·s
same,viscosity,"308.15 K, 101.33 kPa, x1 = 0.693",1.76 ± 0.041 mPa·s
same,viscosity,"308.15 K, 101.33 kPa, x1 = 0.8071",1.88 ± 0.044 mPa·s
same,viscosity,"308.15 K, 101.33 kPa, x1 = 0.8959",2.001 ± 0.046 mPa·s
OCCCl + CCCOC(C)=O,viscosity,"298.15 K, 101.33 kPa, x1 = 0.1017",0.593 ± 0.005 mPa·s
same,viscosity,"298.15 K, 101.33 kPa, x1 = 0.2031",0.658 ± 0.005 mPa·s
same,viscosity,"298.15 K, 101.33 kPa, x1 = 0.3017",0.736 ± 0.006 mPa·s
same,viscosity,"298.15 K, 101.33 kPa, x1 = 0.4061",0.852 ± 0.006 mPa·s
same,viscosity,"298.15 K, 101.33 kPa, x1 = 0.5057",0.989 ± 0.007 mPa·s
same,viscosity,"298.15 K, 101.33 kPa, x1 = 0.5974",1.155 ± 0.009 mPa·s
same,viscosity,"298.15 K, 101.33 kPa, x1 = 0.7006",1.43 ± 0.011 mPa·s
same,viscosity,"298.15 K, 101.33 kPa, x1 = 0.7963",1.805 ± 0.013 mPa·s
same,viscosity,"298.15 K, 101.33 kPa, x1 = 0.9006",2.302 ± 0.018 mPa·s
same,viscosity,"303.15 K, 101.33 kPa, x1 = 0.1017",0.557 ± 0.004 mPa·s
same,viscosity,"303.15 K, 101.33 kPa, x1 = 0.2031",0.614 ± 0.005 mPa·s
same,viscosity,"303.15 K, 101.33 kPa, x1 = 0.3017",0.687 ± 0.005 mPa·s
same,viscosity,"303.15 K, 101.33 kPa, x1 = 0.4061",0.792 ± 0.006 mPa·s
same,viscosity,"303.15 K, 101.33 kPa, x1 = 0.5057",0.908 ± 0.007 mPa·s
same,viscosity,"303.15 K, 101.33 kPa, x1 = 0.5974",1.057 ± 0.008 mPa·s
same,viscosity,"303.15 K, 101.33 kPa, x1 = 0.7006",1.293 ± 0.009 mPa·s
same,viscosity,"303.15 K, 101.33 kPa, x1 = 0.7963",1.615 ± 0.011 mPa·s
same,viscosity,"303.15 K, 101.33 kPa, x1 = 0.9006",2.035 ± 0.015 mPa·s
same,viscosity,"308.15 K, 101.33 kPa, x1 = 0.1017",0.525 ± 0.004 mPa·s
same,viscosity,"308.15 K, 101.33 kPa, x1 = 0.2031",0.58 ± 0.004 mPa·s
same,viscosity,"308.15 K, 101.33 kPa, x1 = 0.3017",0.642 ± 0.005 mPa·s
same,viscosity,"308.15 K, 101.33 kPa, x1 = 0.4061",0.733 ± 0.005 mPa·s
same,viscosity,"308.15 K, 101.33 kPa, x1 = 0.5057",0.856 ± 0.006 mPa·s
same,viscosity,"308.15 K, 101.33 kPa, x1 = 0.5974",0.97 ± 0.007 mPa·s
same,viscosity,"308.15 K, 101.33 kPa, x1 = 0.7006",1.177 ± 0.008 mPa·s
same,viscosity,"308.15 K, 101.33 kPa, x1 = 0.7963",1.473 ± 0.01 mPa·s
same,viscosity,"308.15 K, 101.33 kPa, x1 = 0.9006",1.81 ± 0.013 mPa·s
